Results taken from patent US20240197670A1, “TREATMENT OF HERPES ZOSTER WITH TOPICAL TETRACAINE” (PAGARI LIFE SCIENCE CORP, priority 2022, published 2024).

How the values were obtained:
[1] = system: VZV-ORF57-Luc (Varicella Zoster Virus) in adult human skin; assay: Antiviral evaluation against VZV in skin organ culture (SOC), bioluminescence VZV yield as fold change; format: cell-based
Procedure: The goal of this study was to evaluate the effect of tetracaine against VZV in a skin organ culture (SOC) model and to determine an appropriate duration of treatment in skin to prevent VZV spread. Tetracaine, either the formulation of Example 2 or the formulation of Example 7, was tested as a topical treatment (formulated in the vehicle of Example 7) against VZV infections. Control formulations (cidofovir, CDV) were formulated in cocoa butter.
(§1) Adult human skin from a reduction mammoplasty was cleaned and cut to a thickness of 1 mm, maintaining normal skin architecture while removing underlying adipose and some of the subdermal and connective tissue. Skin was inoculated by scarification with VZV-ORF57-Luc (cell-associated virus, from a frozen stock). VZV-ORF57-Luc expresses firefly luciferase. Infected skin was placed on NetWells, which are designed to hold skin at the air-liquid interface. This orientation keeps the epidermis in contact with the air so it remains dry, while the dermis remains moist and in contact with the medium. Infected skin was scanned by IVIS Spectrum on DPI (Day Post Inoculation) 1 and 3, and prior to treatment being initiated. All treatments were started on DPI 3, but removed after different amounts of time, including after 8, 24, 48, or 72 hours. All compounds were formulated in either the test vehicle or cocoa butter (cidofovir, CDV) and applied directly to the epidermis. To remove treatment, the compound was gently wiped off the surface of the skin, and the entire skin explant was submerged and gently swirled in phosphate-buffered saline (PBS) for a few seconds to remove any residue. The topical treatment was removed prior to imaging by gently wiping it off the epidermis.
FIGS. 4A-4D show VZV yield as fold change, which was calculated as the total flux (photons/sec) normalized to DPI 1 for each skin explant. Imaging started on DPI 1 and was performed every day or every other day starting on DPI 3, depending on the group. In FIGS. 4A-4D, the treatment period is highlighted by a gray box. […]

[2] = system: Adult human skin; assay: Skin appearance / toxicity in skin organ culture; format: cell-based; settings: for skin color change: skin treated for 48 or 72 hours, more intense in 72 hour group, only where applied
Text: as §1
In this study, tetracaine was placed as a small drop in the center of the skin. A color change in the skin treated for 48 or 72 hours was observed, with more intense coloring in the 72 hour group. […] Each row in FIG. 5 depicts the same piece of skin over the course of the assay.

[3] = cited from earlier work

SMILES	virus spread compared to cocoa butter vehicle ([1]; formulated in cocoa butter, by end of treatment phase (FIG. 4D, 72 hours), Student's t-test p<0.01)	skin color change [2]	effect against VZV-infected skin as a topical treatment (study conclusion) ([1]; skin organ culture)	effect on VZV yield vs test vehicle ([1]; topical treatments of 24-72 hours started DPI 3, one-way ANOVA)	solubility in alcohol, ether, benzene and chloroform ([3]; alcohol, ether, benzene, chloroform)	solubility in water ([3]; water)	toxicity to the skin ([2]; low bioluminescent signals in treated explants even after 3 days)
Nc1ccn(C[C@@H](CO)OCP(=O)(O)O)c(=O)n1 [CDV, cidofovir]	significantly lower virus spread	No color change					
CCCCNc1ccc(C(=O)OCCN(C)C)cc1 [Tetracaine]		color change	highly effective	highly effective	soluble	very slightly soluble	not toxic to the skin
